In test [1] the target is T1, SOS1 and KRAS G12C interaction (Homo sapiens, UniProt Q07889).
T1 sequence (Q07889 564-1049 limits assumed): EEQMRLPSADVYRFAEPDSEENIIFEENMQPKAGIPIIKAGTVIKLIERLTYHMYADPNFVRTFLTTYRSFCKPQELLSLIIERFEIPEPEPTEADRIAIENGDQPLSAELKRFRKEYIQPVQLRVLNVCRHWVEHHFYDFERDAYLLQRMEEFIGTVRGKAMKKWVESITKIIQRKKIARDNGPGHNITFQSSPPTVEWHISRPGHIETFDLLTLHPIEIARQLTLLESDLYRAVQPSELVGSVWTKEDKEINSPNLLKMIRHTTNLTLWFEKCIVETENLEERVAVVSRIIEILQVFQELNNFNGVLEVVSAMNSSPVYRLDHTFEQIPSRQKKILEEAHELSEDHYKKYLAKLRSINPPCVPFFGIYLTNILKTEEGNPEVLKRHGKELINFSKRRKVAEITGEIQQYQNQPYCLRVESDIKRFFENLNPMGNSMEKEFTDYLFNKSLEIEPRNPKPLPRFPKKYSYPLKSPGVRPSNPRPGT
Description: Biochemical analysis of the inhibitory activity of SOS1 and KRAS G12C interaction (time-resolved fluorescence, 665/615 nm). The protocol: Biochemical analysis of the inhibitory activity of SOS1 and KRAS G12C interaction
In this experimental example, the efficacy of the compound according to the present invention in inhibiting the binding of KRAS and SOS1 was biochemically measured. A KRAS G12C working solution was prepared by adding biotin-linked KRAS G12C protein and europium-linked streptavidin to assay buffer solution (20 mM HEPES, 50 mM NaCl, 200 µg/mL […] (BSA), 0.01% Pluronic F127). Then, SOS1, in which a tag consisting of six histidine residues is covalently linked, and anti-histidine tag antibody D2 were added to the assay buffer to prepare an SOS1 working solution. After these two working solutions were added to the wells of a well plate, solutions diluted according to the experimental concentration of the test compound from the 10 mM dimethyl sulfoxide (DMSO) stock solution of the Example compound or positive control compound were added to the wells in 100 nL aliquots using an Echo automatic dispenser (Beckman Coulter, USA), or a DMSO blank was added to the wells.

For a further test, the system named is NCI-H358. Description: Cell Growth Inhibition Assay (3D CellTiter-Glo). It is filed as cell-based. To be noted: Homo sapiens, NCI-H358, 288 h, read-out: Cell growth IC50. The protocol: Cell Growth Inhibition Assay
In this experimental example, the cell growth inhibitory effect of compounds according to the present invention and positive control compounds in tumor cell lines was examined.
The cell culture medium containing the compound was replaced by 100 µL every 3 days. Luminescence analysis was performed using the 3D CellTiter-Glo Luminescent Cell Viability Assay Kit (Promega, USA) (Promega catalog number G9681). […] The percent cell growth inhibition rate was calculated from the measured relative luminescence unit (RLU) as follows. Inhibition rate = 1−((RLU compound−RLU blank)/(RLU control−RLU blank)) X 100 [formula]

In another test the test system is MIA-PaCa-2. Description: Reactive oxygen species (ROS) production assay. It is filed as cell-based. To be noted: MIA-PaCa-2 cells, 10 µM, 24 hours; Figure 3. The protocol: Reactive oxygen species (ROS) production assay
In this experimental example, it was examined that the compound according to the present invention has the effect of increasing reactive oxygen in tumor cells.
MIA-PaCa-2 (Korea Cell Line Bank KCLB No. 21420), a cancer cell line harboring KRAS G12C mutation, was cultured in a cell culture medium containing RPMI1640 (Gibco, USA, catalog no. 11875-119), 10% fetal bovine serum (HyClone, USA, catalog no. SH30919.03), and 1 × diluted HyClone Antibiotic Antimycotic solution (HyClone, USA, catalog no. SV30079.01). 3 × 10^5 cells were seeded per well in a 6-well plate and cultured for 1 day at 37°C under 5% CO2 conditions. […] The cells were then collected in a microtube and analyzed for fluorescence using a BD LSRFortessa™ X-20 Cell Analyzer (BD Biosciences, USA) (excitation wavelength: 488 nm, emission wavelength: 535 nm). The fluorescence intensity due to the increase in reactive oxygen species was measured for 10,000 cells. Among the cells treated with 500 µM hydrogen peroxide, which was the positive control, the section in which the fluorescence intensity increased compared to the cells treated with the blank sample was found, and the average fluorescence intensity of the cells within this section was calculated. […]

A word on the IC50: it is the concentration that inhibits the measured activity by half.

Structures are written as SMILES.

For `CNCc1ccccc1-c1c[se]c([C@@H](C)Nc2nc(C)nc3cc(OC)c(OC)cc23)c1` [Example 1, (R)-6,7-dimethoxyl-2-methyl-N-(1-(4-(2-((methylamino)methyl)phenyl)selenophen-2-yl)ethyl)quinazolin-4-amine], the 50% inhibitory concentration (IC50) in test [1] is 18.6 nM; in the test on NCI-H358, 20.7 nM. In addition, the “ROS production compared to the blank sample” value in the test on MIA-PaCa-2 is “significantly increased ROS production”.
